Experimental data from ChEMBL document CHEMBL5247669, “Synthesis, modeling, and biological evaluation of anti-tubulin indole-substituted furanones” (Bioorg Med Chem Lett, 2023).
Blank lines part the entries; values can stand above or below the compound they belong to. Active and inactive are the calls of the source. No cut-off for these calls is given here.

How the values were obtained:
[1] = system: U-937; assay: Anticancer activity against human U-937 cells assessed as reduction in cell viability by MTT assay; format: functional, cell-based
[2] = system: U-251; assay: Growth inhibition of human U-251 cells by MTT assay; format: functional
[3] = system: NCI-H322M; assay: Growth inhibition of human NCI-H322M cells by MTT assay; format: functional
[4] = system: EKVX; assay: Growth inhibition of human EKVX cells by MTT assay; format: functional
[5] = system: UACC-62; assay: Growth inhibition of human UACC-62 cells by MTT assay; format: functional
[6] = system: UACC-257; assay: Growth inhibition of human UACC-257 cells by MTT assay; format: functional
[7] = system: A549; assay: Growth inhibition of human A549 cells by MTT assay; format: functional
[8] = system: HOP-92; assay: Growth inhibition of human HOP-92 cells by MTT assay; format: functional
[9] = system: SNB-19; assay: Growth inhibition of human SNB-19 cells by MTT assay; format: functional
[10] = system: RPMI-8226; assay: Growth inhibition of human RPMI-8226 cells by MTT assay; format: functional
[11] = system: NCI-H23; assay: Growth inhibition of human NCI-H23 cells by MTT assay; format: functional
[12] = system: A498; assay: Growth inhibition of human A498 cells by MTT assay; format: functional
[13] = system: M14; assay: Growth inhibition of human M14 cells by MTT assay; format: functional
[14] = system: OVCAR-3; assay: Growth inhibition of human OVCAR-3 cells by MTT assay; format: functional
[15] = system: LOX IMVI; assay: Growth inhibition of human LOX IMVI cells by MTT assay; format: functional
[16] = system: T47D; assay: Growth inhibition of human T47D cells by MTT assay; format: functional
[17] = system: HOP-62; assay: Growth inhibition of human HOP-62 cells by MTT assay; format: functional
[18] = system: OVCAR-4; assay: Growth inhibition of human OVCAR-4 cells by MTT assay; format: functional
[19] = system: SW-620; assay: Growth inhibition of human SW-620 cells by MTT assay; format: functional
[20] = system: IGROV-1; assay: Growth inhibition of human IGROV-1 cells by MTT assay; format: functional, cell-based
[21] = system: TK-10; assay: Growth inhibition of human TK-10 cells by MTT assay; format: functional
[22] = system: BT-549; assay: Growth inhibition of human BT-549 cells by MTT assay; format: functional
[23] = system: HCT-116; assay: Growth inhibition of human HCT-116 cells by MTT assay; format: functional
[24] = system: RXF 393; assay: Growth inhibition of human RXF 393 cells by MTT assay; format: functional
[25] = system: HT-29; assay: Growth inhibition of human HT-29 cells by MTT assay; format: functional
[26] = system: COLO 205; assay: Growth inhibition of human COLO 205 cells by MTT assay; format: functional
[27] = system: MOLT-4; assay: Growth inhibition of human MOLT-4 cells by MTT assay; format: functional
[28] = system: SK-MEL-28; assay: Growth inhibition of human SK-MEL-28 cells by MTT assay; format: functional
[29] = system: MDA-MB-468; assay: Growth inhibition of human MDA-MB-468 cells by MTT assay; format: functional
[30] = system: KM12; assay: Growth inhibition of human KM12 cells by MTT assay; format: functional
[31] = system: 786-0; assay: Growth inhibition of human 786-0 cells by MTT assay; format: functional
[32] = system: SK-OV-3; assay: Growth inhibition of human SK-OV-3 cells by MTT assay; format: functional
[33] = system: NCI-H226; assay: Growth inhibition of human NCI-H226 cells by MTT assay; format: functional
[34] = system: UO-31; assay: Growth inhibition of human UO-31 cells by MTT assay; format: functional
[35] = system: NCI-H522; assay: Growth inhibition of human NCI-H522 cells by MTT assay; format: functional
[36] = system: HCC 2998; assay: Growth inhibition of human HCC 2998 cells by MTT assay; format: functional
[37] = system: Hs-578T; assay: Growth inhibition of human Hs-578T cells by MTT assay; format: functional
[38] = system: SK-MEL-2; assay: Growth inhibition of human SK-MEL-2 cells by MTT assay; format: functional
[39] = system: SF-539; assay: Growth inhibition of human SF-539 cells by MTT assay; format: functional
[40] = target: Tubulin (Homo sapiens) (UniProt P68371+Q9H4B7+P0DPH7+P68366+Q13509+Q71U36+P04350+Q3ZCM7+P07437+P68363+Q9BQE3+Q6PEY2+Q13885+Q9BVA1+Q9BUF5); assay: Inhibition of tubulin polymerization (unknown origin) at 10 uM; format: protein-complex assay
[41] = system: OVCAR-5; assay: Growth inhibition of human OVCAR-5 cells by MTT assay; format: functional
[42] = system: SNB-75; assay: Growth inhibition of human SNB-75 cells by MTT assay; format: functional
[43] = system: SR; assay: Growth inhibition of human SR cells by MTT assay; format: functional
[44] = system: ACHN; assay: Growth inhibition of human ACHN cells by MTT assay; format: functional
[45] = system: OVCAR-8; assay: Growth inhibition of human OVCAR-8 cells by MTT assay; format: functional
[46] = system: MCF7; assay: Growth inhibition of human MCF7 cells by MTT assay; format: functional
[47] = system: DU-145; assay: Growth inhibition of human DU-145 cells by MTT assay; format: functional
[48] = system: SK-MEL-5; assay: Growth inhibition of human SK-MEL-5 cells by MTT assay; format: functional
[49] = system: NCI-H460; assay: Growth inhibition of human NCI-H460 cells by MTT assay; format: functional
[50] = system: MDA-MB-231; assay: Growth inhibition of human MDA-MB-231 cells by MTT assay; format: functional
[51] = system: HCT-15; assay: Growth inhibition of human HCT-15 cells by MTT assay; format: functional
[52] = system: MDA-MB-435; assay: Growth inhibition of human MDA-MB-435 cells by MTT assay; format: functional
[53] = system: SN12C; assay: Growth inhibition of human SN12C cells by MTT assay; format: functional
[54] = system: HL-60; assay: Growth inhibition of human HL-60 cells by MTT assay; format: functional
[55] = system: CCRF-CEM; assay: Growth inhibition of human CCRF-CEM cells by MTT assay; format: functional
[56] = system: Malme-3M; assay: Growth inhibition of human Malme-3M cells by MTT assay; format: functional
[57] = system: SF-295; assay: Growth inhibition of human SF-295 cells by MTT assay; format: functional
[58] = system: PC-3; assay: Growth inhibition of human PC-3 cells by MTT assay; format: functional
[59] = system: K562; assay: Growth inhibition of human K562 cells by MTT assay; format: functional
[60] = system: NCI/ADR-RES; assay: Growth inhibition of human NCI/ADR-RES cells by MTT assay; format: functional
[61] = system: CAKI-1; assay: Growth inhibition of human CAKI-1 cells by MTT assay; format: functional
[62] = system: SF-268; assay: Growth inhibition of human SF-268 cells by MTT assay; format: functional

EC50 [1]: > 10 µM
Compound: COc1ccc(C2=C(c3cn(C)c4ccccc34)COC2=O)cc1OC

EC50 [1]: 3.2 µM
Compound: COc1ccc(OC)c(C2=C(c3cn(C)c4ccccc34)COC2=O)c1

GI50 [2]: 0.072 µM
GI50 [3]: 0.407 µM
GI50 [7]: 0.1 µM
GI50 [10]: 0.11 µM
GI50 [11]: 0.234 µM
GI50 [14]: 0.036 µM
GI50 [16]: 0.06 µM
GI50 [18]: 1.26 µM
GI50 [19]: 0.045 µM
GI50 [22]: 0.062 µM
GI50 [23]: 0.04 µM
GI50 [25]: 0.038 µM
GI50 [26]: 0.065 µM
GI50 [27]: 0.055 µM
GI50 [28]: 0.427 µM
GI50 [29]: 0.032 µM
GI50 [31]: 0.316 µM
GI50 [32]: 0.269 µM
GI50 [33]: 0.692 µM
GI50 [35]: 0.049 µM
GI50 [36]: 0.219 µM
GI50 [38]: 0.229 µM
inhibition [40]: Active
GI50 [41]: 0.479 µM
EC50 [1]: 0.6 µM
GI50 [44]: 0.537 µM
GI50 [45]: 0.339 µM
GI50 [46]: 0.028 µM
GI50 [47]: 0.209 µM
GI50 [48]: 0.078 µM
GI50 [49]: 0.054 µM
GI50 [50]: 0.339 µM
GI50 [51]: 0.043 µM
GI50 [52]: 0.025 µM
GI50 [54]: 0.043 µM
GI50 [55]: 0.059 µM
GI50 [58]: 0.102 µM
GI50 [59]: 0.037 µM
Compound: COc1cc(C2=C(c3cn(C)c4ccccc34)COC2=O)cc(OC)c1OC
GI50 [4]: 0.151 µM
GI50 [5]: 0.054 µM
GI50 [6]: 1.62 µM
GI50 [8]: 0.251 µM
GI50 [9]: 0.158 µM
GI50 [12]: 0.017 µM
GI50 [13]: 0.037 µM
GI50 [15]: 0.066 µM
GI50 [17]: 0.123 µM
IC50 [20]: 0.076 µM
GI50 [21]: 0.933 µM
GI50 [24]: 0.132 µM
GI50 [30]: 0.065 µM
GI50 [34]: 0.186 µM
GI50 [37]: 0.158 µM
GI50 [39]: 0.105 µM
GI50 [42]: 0.044 µM
GI50 [43]: 0.022 µM
GI50 [53]: 0.282 µM
GI50 [56]: 0.195 µM
GI50 [57]: 0.04 µM
GI50 [60]: 0.047 µM
GI50 [61]: 0.052 µM
GI50 [62]: 0.813 µM

EC50 [1]: > 10 µM
Compound: Cc1cccc(C2=C(c3cn(C)c4ccccc34)COC2=O)c1

EC50 [1]: > 10 µM
Compound: Cc1ccc(C2=C(c3cn(C)c4ccccc34)COC2=O)cc1

The remaining lines, values behind:

Compound: COc1ccc(C2=C(c3cn(C)c4ccccc34)COC2=O)cc1
EC50 [1]: > 10 µM

Compound: Cn1cc(C2=C(c3ccccc3)C(=O)OC2)c2ccccc21
EC50 [1]: > 10 µM

Compound: COc1ccccc1C1=C(c2cn(C)c3ccccc23)COC1=O
EC50 [1]: > 10 µM

Compound: COc1cccc(C2=C(c3cn(C)c4ccccc34)COC2=O)c1
EC50 [1]: > 10 µM
